# Reference: patent publication US9988380B2, “Quorum sensing inhibitors” (priority 2013, dated 2018)
# Read-outs that look alike come from different tables or passages of the source.
# Columns and labels:
# [1] = target: T1, LasR (Pseudomonas aeruginosa, UniProt P25084); assay: AHL competition assay between QSI and OdDHL in heterologous E. coli lasB-gfp(ASV) strain; format: cell-based, P. aeruginosa
# T1 construct: expressed in transfected cells; host or cells: E. coli lasB-gfp(ASV) reporter strain
# Protocol: E. coli Competition Assay between QSI compounds and OdDHL. The E. coli lasB-gfp(ASV) reporter strain was used for the competition assay, which was performed in a similar manner to the P. aeruginosa LasR inhibition assay. OdDHL and the QSI to be studied were added to the wells of a microtitre plate containing ABTGC media. Wells without OdDHL and/or QSI were included as controls. An overnight culture of E. coli lasB-gfp(ASV) strain, grown in LB medium at 37° C. with shaking, was diluted to an OD600 of 0.2, and 100 μl of bacterial suspension was added to each well of the microtitre plate. […] GFP and OD600 readings were obtained as described above for the P. aeruginosa LasR inhibition assay.
# AHL Competition Assay Using the Heterologous E. coli lasB-gfp (ASV) strain. The five QSI candidates were tested for their specificity in inhibiting the LasR receptor by incubating these QSIs with the E. coli lasB-gfp (ASV) reporter strain. LasR is under the control of the Lac promoter and is constitutively expressed, and only LasR can activate gfp expression in this system.
# [2] = test system: LasR-controlled GFP expression in P. aeruginosa PAO1 lasB-gfp(ASV) strain; assay: P. aeruginosa QS inhibition assay with lasB-gfp(ASV) reporter strain; format: cell-based, Pseudomonas aeruginosa
# Protocol: P. aeruginosa QS inhibition assays. Test compounds were dissolved in 100% DMSO and mixed with ABTGC media, after which they were added to the first column of wells of a 96-well microtitre plate (Nunc) to give a final concentration of 100 μM in a final volume of 200 μl. 100 μL of ABTGC media was then added to the remaining wells in the plate and serial two-fold dilutions of the inhibitors were done by adding 100 μL of the preceding inhibitor-containing well to the subsequent one. The final column was left without inhibitor as a control. Next, an overnight culture of P. aeruginosa lasB-gfp(ASV) strain, grown in LB medium at 37° C. with shaking, was diluted to an optical density (OD) at 600 nm of 0.2, and 100 μl of bacterial suspension was added to each well of the microtitre plate. […] The microtitre plate was incubated at 37° C. in a Tecan Infinite 200 Pro plate reader (Tecan Group Ltd., Männedorf, Switzerland). GFP fluorescence (excitation at 485 nm, emission at 535 nm) and cell density (OD600) measurements were collected at 15 min intervals for at least 14 h. The P. aeruginosa Rhl and Pqs inhibition assays were performed in a similar manner to the LasR inhibition assay.
# Inhibition Assay with the P. aeruginosa lasB-gfp(ASV) strain. In the preliminary screen, the 22 selected QSI candidates were screened for their ability to inhibit QS-controlled green fluorescent protein (GFP) expression in the P. aeruginosa lasB-gfp(ASV) strain. Elastase (encoded by the lasB gene) is a virulence factor that is controlled by LasR and therefore a good indicator for LasR activity. […] For ease of identification, each compound was designated a short compound identification code based on its well position in the shipment in place of its standard IUPAC name.
# The dose-response curves of these 5 QSI candidates when incubated with the P. aeruginosa PAO1 lasB-gfp(ASV) strain are shown in FIG. 3. GFP expression, which was measured in relative fluorescence units, was normalized by dividing the GFP value by the corresponding OD600 value measured at that time-point. ‘Control’ refers to the PAO1 strain grown without the presence of QSI, and as expected, it had the highest GFP per OD values. For these five compounds, dose-dependent inhibition of lasB-gfp expression was observed, i.e. the higher the concentration of QSI that was present, the greater the inhibition of gfp expression.
# IC50 Value Comparisons of the Five QSI Candidates. The slope of the curve for each QSI was calculated based on its respective dose-response curves (from FIG. 3) and plotted against the log inhibitor concentration. The slope is indicative of the biosynthesis rate of GFP due to AHL induction. The half maximal inhibitory concentrations (IC50) of the five QSI candidates were calculated using the Graphpad Prism 6 software package (GraphPad Software Inc., CA, USA).
# [3] = test system: P. aeruginosa PAO1 biofilms; assay: Glass slide biofilm assay for observation of eDNA release; format: cell-based; conditions: ABTG medium containing 25 μM G1, 24 h, PI staining
# Protocol: Glass Slide Biofilm Assay for Observation of eDNA Release. The glass slide biofilm assay was performed (Liu et al. 2010 Synergistic activities of an efflux pump inhibitor and iron chelators against Pseudomonas aeruginosa growth and biofilm formation. Antimicrob Agents Chemother 54:3960-3963). Briefly, gfp-tagged P. aeruginosa PAO1 biofilms were cultivated in 50 ml BD falcon tubes containing 15 ml ABTG medium. A sterile 24 mm×60 mm glass cover slide was inserted into each falcon tube for supporting biofilm growth. G1 (10 μm) was added into the biofilm medium to examine its impact on P. aeruginosa PAO1 biofilm formation. DMSO was added alone to the medium as control. Biofilms were incubated at 37° C. without shaking. 2 μM propidium iodide (Sigma-Aldrich) was added to biofilm cultures to stain extracellular DNA for 5 min after 24-hour growth. After that, biofilm attached glass slides were observed by confocal laser scanning microscopy (CLSM).
# [4] = test system: pqsA-gfp(ASV) expression; assay: Inhibition of the PQS QS system, pqsA-gfp(ASV) reporter in PAO1 wild-type and lasR mutant; format: cell-based, P. aeruginosa
# Protocol: Inhibition of the Rhl and PQS QS systems in wild-type PAO1 and PAO1 lasR mutant. Wild-type P. aeruginosa PAO1 strains harboring either the rhlA-gfp(ASV) reporter or the pqsA-gfp(ASV) reporter, and a P. aeruginosa PAO1 lasR mutant harboring either the rhlA-gfp(ASV) reporter or the pqsA-gfp(ASV) reporter were used for this experiment (Refer to FIG. 11 for strain information). Overnight cultures of these four strains were diluted 100-fold in ABTGC media within 96-well microtitre plates to a final volume of 200 μL per well. Each of the five QSIs was added in triplicate to a final concentration of 50 μM. 0.5% DMSO was used as a negative control. The microtitre plate was incubated at 37° C. in a Tecan Infinite 200 Pro plate reader where GFP and OD600 readings were measured at 15 min intervals.
# Effect of QSIs on Rhl and Pqs Quorum-Sensing Systems. In order to address the problem of the specificity of present compounds, the five identified QSI compounds were tested to see if they had any effect on the rhl and pqs systems. The five QSIs were tested against a PAO1 wild-type and a PAO1 lasR mutant harboring either the rhlA-gfp (ASV) bioreporter or the pqsA-gfp (ASV) bioreporter. The rhlA system is dependent on the RhlR/I system. By doing so, we were able to determine if a QSI is able to inhibit the other two QS systems (i.e. rhl and pqs) in a lasR-dependent/independent manner (FIG. 8).
# T1 sequence (P25084 whole entry): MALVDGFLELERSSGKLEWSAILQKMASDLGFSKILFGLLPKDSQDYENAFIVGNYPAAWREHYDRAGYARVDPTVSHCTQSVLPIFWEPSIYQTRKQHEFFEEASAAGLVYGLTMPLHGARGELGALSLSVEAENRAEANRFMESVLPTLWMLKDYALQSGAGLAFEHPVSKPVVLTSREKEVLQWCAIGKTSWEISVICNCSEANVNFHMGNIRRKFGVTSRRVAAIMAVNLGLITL
structure (smiles),measurement,setting,value
"N=c1[nH]c(=O)c2nn[nH]c2[nH]1 [Compound G1, 5-imino-4,6-dihydro-3H-1,2,3-triazolo[5,4-d]pyrimidin-7-one]",relative fluorescence (GFP/OD600),[1]; 320 nM OdDHL with 100 μM G1,711.5
same,relative fluorescence (GFP/OD600),[1]; 100 μM G1 and no OdDHL,438.1
same,specific inhibition of LasR activity in the competition assay,"[1]; E. coli lasB-gfp(ASV), with OdDHL",specifically inhibit LasR activity
same,concentration sufficient in inhibiting OdDHL-LasR induction of gfp expression,[1]; in the presence of 320 nM OdDHL,1.56 µM
same,inhibition at 100 µM,"[1]; read-out: inhibition as compared to the control without G1, 100 μM G1, in the absence of OdDHL",30.2%
same,inhibition at 100 µM,"[1]; read-out: inhibition as compared to the control without G1, 100 μM G1, in the presence of 320 nM OdDHL",46.9%
same,"IC50 of lasB-gfp expression, range in words",[2]; P. aeruginosa PAO1 lasB-gfp(ASV),high nanomolar range
same,effect on cell growth,"[2]; P. aeruginosa lasB-gfp(ASV) strain, OD600",without affecting cell growth
same,inhibition of LasR-controlled GFP expression,"[2]; P. aeruginosa lasB-gfp(ASV) strain, 0.78125-50 μM",inhibit LasR-controlled GFP expression in a dose-dependent manner
same,IC50,"[2]; Pseudomonas aeruginosa, PAO1, read-out: IC50 of lasB-gfp expression",640 nM
same,extracellular DNA (eDNA) in biofilms,[3],less eDNA was observed
same,inhibition of pqsA-gfp expression,"[4]; PAO1 lasR mutant, 50 μM QSI",24.4%
same,inhibition of pqsA-gfp expression,"[4]; wild-type PAO1, 50 μM QSI",57.5%
